“Also recorded” adds a separate entry of the source.
Assays:
Type in all cases: physicochemical
[1] = 7 Day Stability Assessment (XRPD form and HPLC purity after storage); settings: diacetate; for one-week stability: form by XRPD: 1 week (Form 1: 2 and 7 days)
Description: (§1) 25.6 mL of 2-propanol was added to the lyophilized Compound A diacetate salt to form a slurry. The slurry was then temperature cycled between ambient and 40° C. in 4 hour cycles with agitation for ca. 24 hours. The slurry was then filtered and the isolated solids collected into a scintillation vial. A subsample was analyzed by XRPD and the vial was left uncapped to allow the solids to […] at ambient for ca. 24 hours. The material was then re-analyzed by XRPD post-drying and fully characterized using the following techniques: TG/DSC, DSC, DVS with post-DVS XRPD analysis, PLM, FT-IR, ^1H NMR, Purity by HPLC, TG/DSC with post TG/DSC XRPD analysis, and 7 Day Stability Assessment (ca. 10 mg of the material was stored at 40° C./75% RH. 80° C. and ambient light and humidity for 1 week. The solids were then analyzed by XRPD and purity obtained by HPLC). Thermodynamic solubility in water and a pH 7.4 phosphate buffer (The appropriate media was added in 100 μL aliquots to ca. 20 mg of the material to form a slurry. The samples were then sealed and agitated at ambient for ca. 24 hours before being centrifuge filtered. The isolated solids were analyzed by XRPD and the concentration of the mother liquors determined by HPLC).

[2] = Dynamic vapour sorption (DVS) with post-DVS XRPD; settings: for form of recovered solid by post-DVS XRPD: after DVS cycles; for form conversion during DVS / weight loss on form conversion during DVS: at 50% RH
Description: Approximately, 10-20 mg of sample was placed into a mesh vapour sorption balance pan and loaded into a DVS Intrinsic dynamic vapour sorption balance by Surface Measurement Systems. The sample was subjected to a ramping profile from 40-90% relative humidity (RH) at 10% increments, maintaining the sample at each step until a stable weight had been achieved (dm/dt 0.004%, minimum step length 30 minutes, maximum step length 500 minutes) at 25° C. After completion of the sorption cycle, the sample was dried using the same procedure to 0% RH and then a second sorption cycle back to 40% RH. Two cycles were performed. The weight change during the sorption/desorption cycles were plotted, allowing for the hygroscopic nature of the sample to be determined. XRPD analysis was then carried out on any solid retained.

[3] = Thermodynamic solubility in water and a pH 7.4 phosphate buffer; settings: slurry agitated at ambient ca. 24 hours, HPLC; for solubility: diacetate; for solubility at 24 h: thermodynamic from solid
Description: as §1
The material appears highly insoluble in the phosphate buffer with all Forms having a solubility of 0.3 mg/mL except from Form 2 which has a solubility of 0.2 mg/mL.

[4] = Competitive slurry experiments of Forms 1, 3, 8 and 9
Description: Approximately 5 mg of Compound A diacetate salt Forms 1, 3, 8 and 9 were combined into 8×4 mL vials. The appropriate solvent was added to form a slurry and the samples were shaken at ambient or 60° C. for ca. 48 hours. The samples were then removed from shaking and centrifuge filtered. […] The solids were recovered from the XRPD plate and placed back on to shake as before for an additional 3 days before being re-analyzed by XRPD. […]

[5] = Approximate solvent solubility screen of Compound A diacetate salt in 18 solvent systems; settings: thermodynamic from solid
Description: Approximately 380 mg of Form 1 was dissolved in 35 mL of methanol and rotary evaporated. […] A sub-sample was taken for further characterization (TG/DSC, ^1H NMR and PLM). The crystalline material isolated post rotary-evaporation was re-dissolved in 27 mL of water. The solution remained slightly turbid so was syringe filtered to give a clear solution which was split equally among 18 vials to give approximately 20 mg of material per vial. The samples were then frozen at −50° C. before being lyophilized for ca. 72 hours. […] This material was used as input for the solvent solubility screen described below.
The solubility of Compound A diacetate salt was tested in 18 solvent systems. The appropriate solvent was added in 100 μL aliquots to approximately 20 mg of the lyophilized Compound A diacetate salt. Between each addition, the mixture was checked for dissolution and where no dissolution was apparent, the mixture was heated to ca. 40° C. and checked again. This procedure was continued until dissolution was observed or until 100 volumes of solvent had been added.
The solids were then isolated via centrifugal filtration and analyzed by XRPD. If the samples fully dissolved on addition of solvent (methanol and water only), they were uncapped and left to evaporate at ambient. Any solids recovered post-evaporation were then analyzed by XRPD.

[6] = ambient temperature and humidity
[7] = Ethyl Acetate, 2000 μL, Ambient

CC(=O)O.CC(=O)O.N=C(N)c1ccc(OCCCCCOc2ccc(C(=N)N)nc2)cc1 [Form 3, 5-((5-(4-carbamimidoylphenoxy)pentyl)oxy)picolinimidamide diacetate]
one-week stability: form by XRPD ([1]; 40° C./75% RH): convert to Form 1 | one-week stability: form by XRPD ([1]; 80° C.): no change | one-week stability: form by XRPD [1, 6]: convert to Form 1 | form of recovered solid by post-DVS XRPD ([2]; 25° C., diacetate): conversion to Form 9 | form conversion during DVS ([2]; 25° C., diacetate): convert to the hydrated Form 9; also recorded: convert to Form 9 (dihydrate) | weight loss on form conversion during DVS ([2]; 25° C., diacetate): approximately 4 wt. % | solubility ([3]; Water): 38500 µg/mL | solubility ([3]; pH 7.4 Phosphate Buffer): 200 µg/mL

CC(=O)O.CC(=O)O.N=C(N)c1ccc(OCCCCCOc2ccc(C(=N)N)nc2)cc1
XRPD Pattern (2 Days) ([4]; Acetone, 1000 μL, 60° C.): All patterns | XRPD Pattern (5 Days) ([4]; Acetone, 1000 μL, 60° C.): All patterns | XRPD Pattern (2 Days) ([4]; Acetone, 2000 μL, Ambient): All patterns | XRPD Pattern (5 Days) ([4]; Acetone, 2000 μL, Ambient): All patterns | XRPD Pattern (2 Days) ([4]; DCM, 1000 μL, 60° C.): All patterns | XRPD Pattern (5 Days) ([4]; DCM, 1000 μL, 60° C.): All patterns | XRPD Pattern (2 Days) ([4]; DCM, 2000 μL, Ambient): All patterns | XRPD Pattern (5 Days) ([4]; DCM, 2000 μL, Ambient): All patterns | XRPD Pattern (2 Days) ([4]; Ethanol, 1000 μL, 60° C.): 8 + 1 | XRPD Pattern (2 Days) ([4]; Ethanol, 2000 μL, Ambient): 8 + 1 | XRPD Pattern (5 Days) ([4]; Ethanol, 2000 μL, Ambient): 6 | XRPD Pattern (2 Days) [4, 7]: All patterns | XRPD Pattern (5 Days) [4, 7]: All patterns | XRPD Pattern (2 Days) ([4]; Etyl Acetate, 1000 μL, 60° C.): All patterns | XRPD Pattern (5 Days) ([4]; Etyl Acetate, 1000 μL, 60° C.): 1 + 8

CC(=O)O.CC(=O)O.N=C(N)c1ccc(OCCCCCOc2ccc(C(=N)N)nc2)cc1 [Form 8, 5-((5-(4-carbamimidoylphenoxy)pentyl)oxy)picolinimidamide diacetate]
one-week stability: form by XRPD ([1]; 40° C./75% RH): convert to Form 1 | one-week stability: form by XRPD ([1]; 80° C.): no change in form | one-week stability: form by XRPD [1, 6]: convert to Form 1; also recorded: partial conversion to Form 1 | form of recovered solid by post-DVS XRPD ([2]; 25° C., diacetate): conversion of Form 8 to Form 1 | form conversion during DVS ([2]; 25° C., diacetate): desolvate and convert to Form 1 | weight loss on form conversion during DVS ([2]; 25° C., diacetate): 8.2 wt. % | DVS mass increase ([2]; at 90% RH, diacetate): hygroscopic with a 1.6% mass | solubility ([3]; Water): 38700 µg/mL | solubility ([3]; pH 7.4 Phosphate Buffer): 300 µg/mL

CC(=O)O.CC(=O)O.N=C(N)c1ccc(OCCCCCOc2ccc(C(=N)N)nc2)cc1 [Compound A diacetate salt, 5-((5-(4-carbamimidoylphenoxy)pentyl)oxy)picolinimidamide diacetate]
solubility ([5]; all solvents investigated except methanol and water, organic solvent or mixture, read-out: solubility): < 5000 µg/mL | solubility ([5]; organic solvent or mixture, 1,4-Dioxane, lyophilized material, ambient to ca. 40° C., read-out: Approximate Solvent Solubility): ≤ 5000 µg/mL | solubility ([5]; organic solvent or mixture, 2-Propanol, lyophilized material, ambient to ca. 40° C., read-out: Approximate Solvent Solubility): ≤ 5000 µg/mL | solubility ([5]; organic solvent or mixture, 2-methyl THF, lyophilized material, ambient to ca. 40° C., read-out: Approximate Solvent Solubility): ≤ 5000 µg/mL | solubility ([5]; organic solvent or mixture, Acetone, lyophilized material, ambient to ca. 40° C., read-out: Approximate Solvent Solubility): ≤ 5000 µg/mL | solubility ([5]; organic solvent or mixture, Acetonitrile, lyophilized material, ambient to ca. 40° C., read-out: Approximate Solvent Solubility): ≤ 5000 µg/mL | solubility ([5]; organic solvent or mixture, Dichloromethane, lyophilized material, ambient to ca. 40° C., read-out: Approximate Solvent Solubility): ≤ 5000 µg/mL | solubility ([5]; organic solvent or mixture, Dimethylsulfoxide, lyophilized material, ambient to ca. 40° C., read-out: Approximate Solvent Solubility): ≤ 5000 µg/mL | solubility ([5]; organic solvent or mixture, Ethanol, lyophilized material, ambient to ca. 40° C., read-out: Approximate Solvent Solubility): ≤ 5000 µg/mL | solubility ([5]; organic solvent or mixture, Ethyl Acetate, lyophilized material, ambient to ca. 40° C., read-out: Approximate Solvent Solubility): ≤ 5000 µg/mL | solubility ([5]; organic solvent or mixture, Isopropyl Acetate, lyophilized material, ambient to ca. 40° C., read-out: Approximate Solvent Solubility): ≤ 5000 µg/mL | solubility ([5]; organic solvent or mixture, Methanol, lyophilized material, ambient to ca. 40° C., read-out: Approximate Solvent Solubility): 20000 µg/mL | solubility ([5]; organic solvent or mixture, Methylethyl Ketone, lyophilized material, ambient to ca. 40° C., read-out: Approximate Solvent Solubility): ≤ 5000 µg/mL | solubility ([5]; organic solvent or mixture, N,N′-Dimethylacetamide, lyophilized material, ambient to ca. 40° C., read-out: Approximate Solvent Solubility): ≤ 5000 µg/mL | solubility ([5]; organic solvent or mixture, N,N′-Dimethylformamide, lyophilized material, ambient to ca. 40° C., read-out: Approximate Solvent Solubility): ≤ 5000 µg/mL | solubility ([5]; organic solvent or mixture, N-Methylpyrrolidone, lyophilized material, ambient to ca. 40° C., read-out: Approximate Solvent Solubility): ≤ 5000 µg/mL | solubility ([5]; organic solvent or mixture, Tetrahydrofuran, lyophilized material, ambient to ca. 40° C., read-out: Approximate Solvent Solubility): ≤ 5000 µg/mL | solubility ([5]; organic solvent or mixture, Toluene, lyophilized material, ambient to ca. 40° C., read-out: Approximate Solvent Solubility): ≤ 5000 µg/mL | solubility ([5]; Water, lyophilized material, ambient to ca. 40° C., read-out: Approximate Solvent Solubility): 50000 µg/mL

CC(=O)O.CC(=O)O.N=C(N)c1ccc(OCCCCCOc2ccc(C(=N)N)nc2)cc1 [Form 2, 5-((5-(4-carbamimidoylphenoxy)pentyl)oxy)picolinimidamide diacetate]
solubility at 24 h ([3]; phosphate buffer, pH 7.4, aqueous buffer, pH 7.4 Phosphate Buffer): 200 µg/mL

CC(=O)O.CC(=O)O.N=C(N)c1ccc(OCCCCCOc2ccc(C(=N)N)nc2)cc1 [Form 1, 5-((5-(4-carbamimidoylphenoxy)pentyl)oxy)picolinimidamide diacetate]
one-week stability: form by XRPD ([1]; 40° C./75% RH): no change in form | one-week stability: form by XRPD ([1]; 80° C.): no change in form | one-week stability: form by XRPD [1, 6]: no change in form | 1 Week Stability ([1]; form by XRPD after storage at 40° C./75% RH, ambient or 80° C.): No change in form by XRPD | hygroscopicity by DVS ([2]; DVS, 25° C., diacetate): slightly hygroscopic | DVS: form post-DVS ([2]; XRPD post-DVS): water) at 90% RH. No change | form of recovered solid by post-DVS XRPD ([2]; 25° C., diacetate): remained as the received pattern 1; also recorded: No change in form | DVS ([2]; hygroscopicity / form change during DVS cycle, diacetate): Slightly hygroscopic | solubility ([3]; pH 7.4 Phosphate Buffer): 300 µg/mL | solubility at 24 h ([3]; water): 49500 µg/mL
